Experimental data reported in patent US20240246916A1, “7-NITRO-8-HYDROXYQUINOLINE DERIVATIVES, PREPARATION METHOD THEREFORE AND MEDICAL USE THEREOF” (Jiangsu Yahong Meditech Co., Ltd., priority 2021, published 2024).
Converted amounts (≈) assume the structure as drawn.

Key:
Assay type in all cases: cell-based
[1] = system: Mouse prostate cancer cell line RM1; assay: Inhibitory activity on cancer cells, CellTiter-Glo viability, RM1; settings: 72 hours treatment
In short: (§1)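 HUVEC seeded at 2000, UM-UC-3 and RM-1 at 3000, LNCaP at 5000 cells/well, each in its own medium, 24 h before dosing. Compounds: 8-point 2.5-fold dilutions from 100 μmol, 72 h at 37 °C, 5% CO2. CellTiter-Glo luminescence; IC50 from growth-inhibition curves.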

[2] = system: Acinetobacter baumannii (carbapenem-resistant clinical isolates; ATCC19606); assay: MIC by micro broth dilution (CLSI), Acinetobacter baumannii; settings: Acinetobacter baumannii; for MIC50 / MIC90: ATCC19606, Clinical strain; for MIC50: read-out: MIC50; for MIC90: read-out: MIC90; for MIC: Standard strain ATCC19606, read-out: MIC
In short: (§2)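 CLSI broth microdilution in cation-adjusted Mueller-Hinton broth, compounds in DMSO at 128 to 0.06 mg/L. Inoculum 10^5 CFU/mL from 0.5 McFarland suspensions diluted 100-fold; 35±2 °C, 20 h in air. Clinical isolates plus ATCC/NCTC quality-control strains; interpretation per CLSI 2019 M100.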

[3] = system: Staphylococcus aureus (methicillin-resistant and sensitive clinical isolates; ATCC29213); assay: MIC by micro broth dilution (CLSI), Staphylococcus aureus; settings: for MIC50 / MIC90: Clinical strain; for MIC50: read-out: MIC50; for MIC90: read-out: MIC90; for MIC: Standard strain ATCC29213, read-out: MIC
In short: as §2

[4] = system: Escherichia coli (carbapenem-resistant clinical isolate; ATCC25922); assay: MIC by micro broth dilution (CLSI), Escherichia coli; settings: Escherichia coli; for MIC50 / MIC90: ATCC25922, Clinical strain; for MIC50: read-out: MIC50; for MIC90: read-out: MIC90; for MIC: Standard strain ATCC25922, read-out: MIC
In short: as §2

[5] = MIC by micro broth dilution (CLSI), Klebsiella pneumoniae; settings: for MIC50 / MIC90: Standard strain
From the text: The test bacteria were one strain of clinically isolated carbapenem-resistant Escherichia coli, two strains of carbapenem-resistant Acinetobacter baumannii, two strains of methicillin-resistant Staphylococcus aureus, two strains of sensitive Staphylococcus aureus, and 7 strains of Klebsiella pneumoniae. Duplicate strains isolated from the same patient were eliminated. There were also […] quality control strains Escherichia coli ATCC25922, Acinetobacter baumannii ATCC19606, Staphylococcus aureus ATCC29213, Klebsiella pneumoniae ATCC BAA-1705, ATCC 43816, ATCC BAA-2472, ATCC-BAA-1898, ATCC-BAA-1899, NCTC 13440 and ATCC-BAA-2470. There were 24 strains in total.
According to the recommendations of relevant documents of the American Clinical and Laboratory Standards Institute (CLSI), the micro broth dilution method was used to determine the MIC of the compounds of the present invention against clinically isolated strains. • 3.1 Formulation of antibacterial drug: All the compounds of the present invention were dissolved in DMSO. The drug concentration range was 128 mg/L to 0.06 mg/L. • 3.2 Culture medium: The drug susceptibility test used cation adjusted Mueller-Hinton broth (CAMHB). • 3.3 Amount of inoculum: The test bacteria cultured overnight were adjusted to 0.5 McFarland turbidity by the direct colony suspension method, and diluted 100 folds, the final inoculum amount was 10^5 CFU/mL. • 3.4 Culture conditions: The test bacteria were cultured at 35±2° C. for 20 hours in air.
The drug susceptibility test results were interpretated by reference to CLSI 2019 M100 29th edition criteria.
The quality control strains of the drug susceptibility test were Escherichia coli ATCC 25922, Acinetobacter baumannii ATCC 19606, Staphylococcus aureus ATCC 29213, Klebsiella pneumoniae ATCC BAA-1705, ATCC 43816, ATCC BAA-2472, ATCC-BAA-1898, ATCC-BAA-1899, NCTC 13440 and ATCC-BAA-2470.
The results of drug susceptibility test were statistically analyzed by WHONET software (version 5.6).

[6] = system: Prostate cancer cell line LNcaP; assay: Inhibitory activity on cancer cells, CellTiter-Glo viability, LNcaP; settings: Homo sapiens, 72 hours treatment
In short: as §1

[7] = system: Endothelial cell line HUVEC; assay: Inhibitory activity on cells, CellTiter-Glo viability, HUVEC; settings: Homo sapiens, 72 hours treatment
In short: as §1

[8] = system: Bladder cancer cell line UM-UC-3; assay: Inhibitory activity on cancer cells, CellTiter-Glo viability, UM-UC-3; settings: Homo sapiens, UMUC3, 72 hours treatment
In short: as §1

SMILES	IC50 [1]	MIC50 [2]	MIC90 [2]	MIC [2]	MIC50 [3]	MIC90 [3]	MIC [3]	MIC50 [4]	MIC90 [4]	MIC [4]	MIC50 [5]	MIC90 [5]	IC50 [6]	IC50 [7]	IC50 [8]	MIC ([5]; Standard strain ATCC43816)
O=[N+]([O-])c1ccc2c(C3CC3)ccnc2c1O [Example 11, 4-Cyclopropyl-7-nitroquinolin-8-ol]	3.42 µM	16 µg/mL (≈ 69.5 µM)	128 µg/mL (≈ 556 µM)	> 128 µg/mL	8 µg/mL (≈ 34.7 µM)	8 µg/mL (≈ 34.7 µM)	4 µg/mL (≈ 17.4 µM)	8 µg/mL (≈ 34.7 µM)	128 µg/mL (≈ 556 µM)	> 128 µg/mL	64 µg/mL (≈ 278 µM)	64 µg/mL (≈ 278 µM)	1.67 µM	2.97 µM	2.71 µM	–
O=[N+]([O-])c1ccc(O)c2ncccc12 [Nitroxoline, nitroxoline, reference compound]	4.3 µM	4 µg/mL (≈ 21 µM)	4 µg/mL (≈ 21 µM)	2 µg/mL (≈ 10.5 µM)	4 µg/mL (≈ 21 µM)	4 µg/mL (≈ 21 µM)	4 µg/mL (≈ 21 µM)	8 µg/mL (≈ 42.1 µM)	16 µg/mL (≈ 84.1 µM)	4 µg/mL (≈ 21 µM)	8 µg/mL (≈ 42.1 µM)	16 µg/mL (≈ 84.1 µM)	5.1 µM	4.5 µM	9.2 µM	4 µg/mL (≈ 21 µM)
